Reference: patent publication US6096930A, “Herbicidal cyclohexane-1,3-dione derivatives and their preparation process” (Korea Research Institute of Chemical Technology, priority 1994, dated 2000)
Where two headings read alike, the source gives them in different places.

Key:
Format in all cases: in vivo
[1] = system: ECHOR; assay: Herbicidal activity, upland test, pre-emergence
Description: (§1) The sterilized sandy loam soil is filled in test pot having a surface area of 348 cm^2 for upland test conditions or 115 cm^2 for paddy test species were planted in furrows.
(§2) For the pre-emergent tests, were sprayed on the soil one day after planting test compound in a mixture of acetone and 7 ml of the water containing up to 0.1% Tween 20.
(§3) The concentration of the test compound in solution was varied to give a range of application rates, generally 4.0 kg/ha and submultiples thereof. The pots were placed in a greenhouse and watered regularly at the soil surface for 21 days and herbicidal effects were visually rated by a percent control.
(§4) The herbicidal activity data were taken visually by percent control, wherein 0 signifies no herbicidal effect and 100 signifies complete kill.

[2] = system: PANDI; assay: Herbicidal activity, upland test, pre-emergence
Description: as §1, §2, §3, §4

[3] = system: ABUTH; assay: Herbicidal activity, upland test, pre-emergence
Description: as §1, §2, §3, §4

[4] = system: ZEAMX; assay: Herbicidal activity, upland test, pre-emergence
Description: as §1, §2, §3, §4

[5] = system: GLXMX; assay: Herbicidal activity, upland test, pre-emergence
Description: as §1, §2, §3, §4

[6] = system: SAGPY; assay: Herbicidal activity for paddy test
How it was run: (§5)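 Paddy test species were sown in furrows in sterilized sandy loam soil filled into pots with a 115 cm^2 surface area. Herbicidal activity was scored visually as percent control, from 0 (no effect) to 100 (complete kill).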

[7] = system: ECHOR; assay: Herbicidal activity for paddy test
How it was run: as §5

[8] = system: ORYSA; assay: Herbicidal activity for paddy test; conditions: for plant injury at 2 g/ha: 0.002 kg/ha; for plant injury at 8 g/ha: 0.008 kg/ha; for plant injury at 31 g/ha: 0.031 kg/ha; for plant injury at 125 g/ha: 0.125 kg/ha; for plant injury at 500 g/ha: 0.500 kg/ha
How it was run: as §5

[9] = system: MOOVA; assay: Herbicidal activity for paddy test
How it was run: as §5

[10] = system: SCPJU; assay: Herbicidal activity for paddy test
How it was run: as §5

[11] = system: SORBI; assay: Herbicidal activity, upland test, post-emergence
Excerpt: as §1
(§6) The pots for the post-emergent tests were placed in a greenhouse and watered for 9~14 days, then the foliage of test plants was sprayed with a solution of the test compound in a mixture of acetone and water containing a small amount of Tween 20.
(§7) After spraying the plants were kept for one day, then watered regularly for 14 to 21 days, and herbicidal activity data were recorded.
as §4

[12] = system: DIGSA; assay: Herbicidal activity, upland test, post-emergence
Excerpt: as §1, §6, §7, §4

[13] = 3 Leaf, read-out: Herbicidal activity, ORYSA (3 Leaf)
[14] = seed, read-out: Herbicidal activity, ORYSA (seed)

**Q.** With `CCON=C(CC)C1=C(O)CC(c2c(C)c(C)c3c(c2C)CC(C)(C)C3)CC1=O` (stereo not drawn) [Compound 2] as the compound, how does the “Herbicidal activity, ECHOR” value ([1]; 0.016 kg/ha) read?
**A.** Its value is 0 % inhibition.

**Q.** What about the “Herbicidal activity, ECHOR” value ([1]; 0.063 kg/ha) of the same compound?
**A.** Its value is 40 % inhibition.

**Q.** And the “Herbicidal activity, ECHOR” value ([1]; 1.000 kg/ha)?
**A.** Its value is 100 % inhibition.

**Q.** What about the “Herbicidal activity, ECHOR” value ([1]; 1.250 kg/ha) of the same compound?
**A.** Its value is 100 % inhibition.

**Q.** What about the “Herbicidal activity, PANDI” value ([2]; 0.016 kg/ha) of the same compound?
**A.** The value was 0 % inhibition.

**Q.** And the “Herbicidal activity, PANDI” value ([2]; 0.063 kg/ha)?
**A.** Its value is 50 % inhibition.

**Q.** And the “Herbicidal activity, PANDI” value ([2]; 1.000 kg/ha)?
**A.** The value was 100 % inhibition.

**Q.** And the “Herbicidal activity, PANDI” value ([2]; 1.250 kg/ha)?
**A.** Its value is 100 % inhibition.

**Q.** And the “Herbicidal activity, ABUTH” value ([3]; 0.016 kg/ha)?
**A.** The value was 0 % inhibition.

**Q.** And the “Herbicidal activity, ABUTH” value ([3]; 0.063 kg/ha)?
**A.** Its value is 0 % inhibition.

**Q.** What about the “Herbicidal activity, ABUTH” value ([3]; 1.000 kg/ha) of the same compound?
**A.** Its value is 0 % inhibition.

**Q.** What about the “Herbicidal activity, ABUTH” value ([3]; 1.250 kg/ha) of the same compound?
**A.** The value was 0 % inhibition.

**Q.** What about the “Herbicidal activity, ZEAMX” value ([4]; 0.016 kg/ha) of the same compound?
**A.** Its value is 0 % inhibition.

**Q.** What about the “Herbicidal activity, ZEAMX” value ([4]; 0.063 kg/ha) of the same compound?
**A.** Its value is 0 % inhibition.

**Q.** What about the “Herbicidal activity, ZEAMX” value ([4]; 1.000 kg/ha) of the same compound?
**A.** Its value is 100 % inhibition.

**Q.** What about the “Herbicidal activity, ZEAMX” value ([4]; 1.250 kg/ha) of the same compound?
**A.** The value was 40 % inhibition.

**Q.** What about the “Herbicidal activity, GLXMX” value ([5]; 0.016 kg/ha) of the same compound?
**A.** The value was 0 % inhibition.

**Q.** And the “Herbicidal activity, GLXMX” value ([5]; 0.063 kg/ha)?
**A.** The value was 0 % inhibition.

**Q.** What about the “Herbicidal activity, GLXMX” value ([5]; 1.000 kg/ha) of the same compound?
**A.** Its value is 0 % inhibition.

**Q.** What about the “Herbicidal activity, GLXMX” value ([5]; 1.250 kg/ha) of the same compound?
**A.** The value was 0 % inhibition.

**Q.** And the pest or weed control at 2 g/ha ([6]; 0.002 kg/ha)?
**A.** The pest or weed control at 2 g/ha was 0%.

**Q.** And the pest or weed control at 8 g/ha ([6]; 0.008 kg/ha)?
**A.** The pest or weed control at 8 g/ha was 0%.

**Q.** What about the pest or weed control at 31 g/ha ([6]; 0.031 kg/ha) of the same compound?
**A.** The pest or weed control at 31 g/ha was 0%.

**Q.** And the pest or weed control at 125 g/ha ([6]; 0.125 kg/ha)?
**A.** The pest or weed control at 125 g/ha was 0%.

**Q.** What about the pest or weed control at 500 g/ha ([6]; 0.500 kg/ha) of the same compound?
**A.** The pest or weed control at 500 g/ha was 0%.

**Q.** And the pest or weed control at 2 g/ha ([7]; 0.002 kg/ha)?
**A.** Its pest or weed control at 2 g/ha is 60%.

**Q.** And the pest or weed control at 8 g/ha ([7]; 0.008 kg/ha)?
**A.** The pest or weed control at 8 g/ha was 100%.

**Q.** And the pest or weed control at 31 g/ha ([7]; 0.031 kg/ha)?
**A.** The pest or weed control at 31 g/ha was 100%.

**Q.** And the pest or weed control at 125 g/ha ([7]; 0.125 kg/ha)?
**A.** The pest or weed control at 125 g/ha was 100%.

**Q.** What about the pest or weed control at 500 g/ha ([7]; 0.500 kg/ha) of the same compound?
**A.** The pest or weed control at 500 g/ha was 100%.

**Q.** And the plant injury at 2 g/ha [8, 13]?
**A.** Its plant injury at 2 g/ha is 0%.

**Q.** And the plant injury at 8 g/ha [8, 13]?
**A.** Its plant injury at 8 g/ha is 0%.

**Q.** What about the plant injury at 31 g/ha [8, 13] of the same compound?
**A.** Its plant injury at 31 g/ha is 0%.

**Q.** What about the plant injury at 125 g/ha [8, 13] of the same compound?
**A.** Its plant injury at 125 g/ha is 60%.

**Q.** What about the plant injury at 500 g/ha [8, 13] of the same compound?
**A.** Its plant injury at 500 g/ha is 100%.

**Q.** What about the plant injury at 2 g/ha [8, 14] of the same compound?
**A.** Its plant injury at 2 g/ha is 30%.

**Q.** What about the plant injury at 8 g/ha [8, 14] of the same compound?
**A.** The plant injury at 8 g/ha was 80%.

**Q.** What about the plant injury at 31 g/ha [8, 14] of the same compound?
**A.** The plant injury at 31 g/ha was 100%.

**Q.** What about the plant injury at 125 g/ha [8, 14] of the same compound?
**A.** Its plant injury at 125 g/ha is 100%.

**Q.** And the plant injury at 500 g/ha [8, 14]?
**A.** The plant injury at 500 g/ha was 100%.

**Q.** And the pest or weed control at 2 g/ha ([9]; 0.002 kg/ha)?
**A.** The pest or weed control at 2 g/ha was 0%.

**Q.** And the pest or weed control at 8 g/ha ([9]; 0.008 kg/ha)?
**A.** The pest or weed control at 8 g/ha was 0%.

**Q.** What about the pest or weed control at 31 g/ha ([9]; 0.031 kg/ha) of the same compound?
**A.** The pest or weed control at 31 g/ha was 0%.

**Q.** And the pest or weed control at 125 g/ha ([9]; 0.125 kg/ha)?
**A.** Its pest or weed control at 125 g/ha is 0%.

**Q.** And the pest or weed control at 500 g/ha ([9]; 0.500 kg/ha)?
**A.** The pest or weed control at 500 g/ha was 0%.

**Q.** What about the pest or weed control at 2 g/ha ([10]; 0.002 kg/ha) of the same compound?
**A.** Its pest or weed control at 2 g/ha is 0%.

**Q.** And the pest or weed control at 8 g/ha ([10]; 0.008 kg/ha)?
**A.** Its pest or weed control at 8 g/ha is 0%.

**Q.** And the pest or weed control at 31 g/ha ([10]; 0.031 kg/ha)?
**A.** The pest or weed control at 31 g/ha was 0%.

**Q.** And the pest or weed control at 125 g/ha ([10]; 0.125 kg/ha)?
**A.** The pest or weed control at 125 g/ha was 0%.

**Q.** What about the pest or weed control at 500 g/ha ([10]; 0.500 kg/ha) of the same compound?
**A.** Its pest or weed control at 500 g/ha is 0%.

**Q.** What about the “Herbicidal activity, SORBI” value ([11]; 0.004 kg/ha) of the same compound?
**A.** Its value is 0 % inhibition.

**Q.** And the “Herbicidal activity, SORBI” value ([11]; 0.016 kg/ha)?
**A.** Its value is 0 % inhibition.

**Q.** What about the “Herbicidal activity, SORBI” value ([11]; 0.063 kg/ha) of the same compound?
**A.** Its value is 60 % inhibition.

**Q.** What about the “Herbicidal activity, SORBI” value ([11]; 1.000 kg/ha) of the same compound?
**A.** The value was 100 % inhibition.

**Q.** And the “Herbicidal activity, SORBI” value ([11]; 1.250 kg/ha)?
**A.** The value was 100 % inhibition.

**Q.** And the “Herbicidal activity, DIGSA” value ([12]; 0.004 kg/ha)?
**A.** Its value is 100 % inhibition.

**Q.** And the “Herbicidal activity, DIGSA” value ([12]; 0.016 kg/ha)?
**A.** The value was 100 % inhibition.
